Entries after “also recorded” stand apart in the source; their conditions may differ.

In data set [1] the test system is Human bone marrow derived mesenchymal stem cells (MSCs). The data set is described as follows: Osteogenic differentiation of MSCs (Alizarin Red calcium deposition). Conditions: for osteogenic activity (structure-activity summary, in words): donor MSCs; for osteogenic activity (structure-activity summary, in words) / osteogenesis averaged over all three donors, relative to vehicle treated MSCs / cytotoxicity to donor MSCs: 1 μM; for cytotoxicity to donor MSCs: MSCs from three donors (toxic in Donor 2 and Donor 3); for osteogenic differentiation of MSCs, fold relative to vehicle treated MSCs: daidzein 1 μM, genistein 1 μM, Alizarin Red; for IC50: read-out: IC50 averaged among the three donors, mean of three donors.

In the next data set the test system is BMSCs. The data set is described as follows: Osteogenic differentiation of BMSCs (alizarin red). Conditions: 14 days; for cytotoxicity of BMSCs by bright field microscopy, compared to vehicle / osteogenic differentiation (calcium deposition), fold relative to vehicle-treated BMSCs: estrogen 10 nM, others 1 μM; for osteogenic differentiation (calcium deposition), fold relative to vehicle-treated BMSCs: n=6 donors.

For a further data set, the system named is ASCs. The data set is described as follows: Osteogenic differentiation of ASCs (alizarin red). Particulars: 14 days; for cytotoxicity of ASCs by bright field microscopy, compared to vehicle / osteogenic differentiation (calcium deposition), fold relative to vehicle-treated ASCs: estrogen 10 nM, others 1 μM; for osteogenic differentiation (calcium deposition), fold relative to vehicle-treated ASCs: n=6 donors.

Data set [2] has as its system MSCs (Sp7, ALP, OP, IGF1 transcripts). Briefly: qRT-PCR of osteogenic transcription factors in MSCs. The class given is cell-based, human. Conditions: pooled MSCs, 1 μM, 14 days. From the text:
. […] The following primer set sequence for was used: Sp7 forward 5′-CCAGTGTCTACACCTCTC-3′ (SEQ ID NO: 1), reverse 5′-ATGGAGTAGGAGTGTTGC-3′ (SEQ ID NO: 2); IGF-1 forward 5′-CTGTGATCTAAGGAGGCTG-3′ (SEQ ID NO: 3), reverse 5′-[…]-3′ (SEQ ID NO: 4); ALP forward 5′-[…]-3′ (SEQ ID NO: 5), reverse 5′-[…]-3′ (SEQ ID NO: 6); osteopontin forward 5′-[…]-3′ (SEQ ID NO: 7), reverse 5′-[…]-3′ (SEQ ID NO: 8). β-actin forward 5′-[…]-3′ (SEQ ID NO: 9), reverse 3′-[…]-5′ (SEQ ID NO: 10) was used as an internal reference point. At the completion of the reaction, ΔΔCt was calculated to quantify mRNA expression.
(Quantitative PCR measures a nucleic acid by following its amplification.)

Where [3] appears, read: screen, MSCs from one donor (Donor 1), analogs and daidzein 1 μM, estrogen 10 nM, 14 days.
Where [4] appears, read: 1 μM + 100 nM fulvestrant, FIG. 12.
Setting [5] is: Donor 1, estrogen 10 nM, 14 days.
The mark [6] stands for this setting: Donor 2, estrogen 10 nM, 14 days.
Setting [7] is: Donor 3, estrogen 10 nM, 14 days.

As to `CCCCCCOc1ccc2c(=O)c(-c3ccc(O)cc3)coc2c1` [2h, 7-Hexyloxy-3-(4-hydroxyphenyl)-4H-chromen-4-one], in data set [1] (14 days), the “osteogenic activity (structure-activity summary, in words)” value (from here on “osteogenic activity”) is “marked enhancement” and the “osteogenesis averaged over all three donors, relative to vehicle treated MSCs” value stood at 2.0±0.48. In data set [1] (setting [3]), the “induction category of osteogenic differentiation (no, low, high induction)” value was “high inducers”.

`O=c1c(-c2ccc(O)cc2)coc2cc(OCCN3CCCCC3)ccc12` [2i, 3-(4-Hydroxyphenyl)-7-(2-(piperidin-1-yl)ethoxy)-4H-chromen-4-one]: the “cytotoxicity to donor MSCs” value in data set [1] (14 days) is “cytotoxic; also recorded: potent toxicity to two donors”. Also, the “induction category of osteogenic differentiation (no, low, high induction)” value in data set [1] (setting [3]) is “high inducers”.

Consider `COc1ccc2c(=O)c(-c3ccc(O)cc3)coc2c1` [2a, 3-(4-Hydroxyphenyl)-7-methoxy-4H-chromen-4-one], for which the “osteogenic activity” value in data set [1] (14 days) is given as “modest osteogenic activity”.

As usually defined, the melting point is the temperature of the solid-liquid transition. Consider `CC1(C)C=Cc2c(ccc3c(=O)c(-c4ccc(B5OC(C)(C)C(C)(C)O5)cc4)coc23)O1` [compound 8, 8,8-dimethyl-3-(4-(4,4,5,5-tetramethyl-1,3,2-dioxaborolan-2-yl)phenyl)pyrano[2,3-f]chromen-4(8H)-one], for which the melting point lay within 228 to 230 °C.

For the compound `O=c1c(-c2ccc(O)cc2)coc2cc(O)ccc12` [daidzein, Daidzein], the “osteogenic potential of BMSCs relative to vehicle, with fulvestrant” value in the data set on BMSCs (setting [4]) was 1.0 fold. Also, the “osteogenic potential of BMSCs relative to vehicle, inhibitor study, without fulvestrant” value with BMSCs (1 μM, FIG. 12) came out at 1.7 fold. Further, in the data set with BMSCs, the “cytotoxicity of BMSCs by bright field microscopy, compared to vehicle” value was “did not demonstrate enhanced cytotoxicity” and the “osteogenic differentiation (calcium deposition), fold relative to vehicle-treated BMSCs” value is given as 1.5 fold. For the same compound, the “osteogenic differentiation of MSCs, fold relative to vehicle treated MSCs” value in data set [1] (setting [5]) was found to be 1.7±0.19 fold. The “osteogenic differentiation of MSCs, fold relative to vehicle treated MSCs” value in data set [1] (setting [6]) stood at 1.7±0.01 fold. Also, in data set [1] (setting [7]), the “osteogenic differentiation of MSCs, fold relative to vehicle treated MSCs” value came out at 1.6±0.15 fold. For the same compound, in data set [1] (setting [3]), the “induction category of osteogenic differentiation (no, low, high induction)” value is reported as “low inducers” and the “osteogenic differentiation relative to vehicle treated MSCs in ODM” value stood at 1.7±0.3 fold. The “osteogenic potential of ASCs relative to vehicle, with fulvestrant” value in the data set with ASCs (setting [4]) is reported as 1.0 fold. In the data set with ASCs (1 μM, FIG. 12), the “osteogenic potential of ASCs relative to vehicle, inhibitor study, without fulvestrant” value is recorded as 1.5 fold. Also, in the data set on ASCs, the “cytotoxicity of ASCs by bright field microscopy, compared to vehicle” value is on record as “did not demonstrate enhanced cytotoxicity” and the “osteogenic differentiation (calcium deposition), fold relative to vehicle-treated ASCs” value is 1.7 fold.

In the case of `COc1ccc(NC(=O)c2ccc(OC)cc2OC)cc1` [12a, 2,4-Dimethoxy-N-(4-methoxyphenyl)benzamide], the “osteogenic activity” value in data set [1] (14 days) is “strong osteogenic activity”. Besides, the “induction category of osteogenic differentiation (no, low, high induction)” value in data set [1] (setting [3]) is on record as “high inducers”.

Compound `CC1(C)C=Cc2c(ccc3c(=O)c(-c4ccc(O)cc4)coc23)O1` [compound 3, 3-(4-Hydroxyphenyl)-8,8-dimethyl-8H-pyrano[2,3f]-chromen-4-one] yielded a melting point of 262 to 264 °C. The “osteogenic activity” value in data set [1] (14 days) is given as “did not exhibit any osteogenic activity”.

Turning to `CN(C)CCOc1ccc2c(=O)c(-c3ccc(O)cc3)coc2c1` [2k, 7-(2-(Dimethylamino)ethoxy)-3-(4-hydroxyphenyl)-4H-chromen-4-one], in data set [1] (14 days), the “osteogenic activity” value is “no osteogenic effect”.

As to `CCOc1ccc2c(=O)c(-c3ccc(O)cc3)coc2c1` [2b, 7-Ethoxy-3-(4-hydroxyphenyl)-4H-chromen-4-one], the “osteogenic activity” value in data set [1] (14 days) is given as “modest osteogenic activity”.

For the compound `O=c1c(-c2ccc(O)cc2)coc2cc(OCCN3CCCC3)ccc12` [2j, 3-(4-Hydroxyphenyl)-7-(2-(pyrrolidin-1-yl)ethoxy)-4H-chromen-4-one], the “osteogenic activity” value in data set [1] (14 days) was “no osteogenic effect”.

In the case of `Cc1cc2c(ccc3c(=O)c(-c4ccc(O)cc4)coc32)o1` [compound 7, 3-(4-hydroxyphenyl)-8-methyl-4H-furo[2,3-h]chromen-4-one], the “osteogenic activity” value in data set [1] (14 days) is “modest potential”.

Take `CCCCOc1ccc2c(c1)OCC(c1ccc(O)cc1)C2` (centres unmarked) [compound 9, 4-(7-Butoxychroman-3-yl)phenol]: the “osteogenic activity” value in data set [1] (14 days) was “no osteogenic activity”.

Broadly, the IC50 is the concentration needed to halve the response being measured. Take `CC(C)COc1ccc2c(=O)c(-c3ccc(O)cc3)coc2c1` [2f, 3-(4-Hydroxyphenyl)-7-isobutoxy-4H-chromen-4-one]: in data set [1], the “differentiation at day 7” value is “enhanced differentiation at day 7”. Moreover, the “IC50 (analog concentration required to achieve 1.5 fold relative bone differentiation)” value in data set [1] (donor 3, 1 nM-1 μM, 14 days) is on record as 1.38 μM. Besides, in data set [1] (14 days), the “osteogenic activity” value was “marked enhancement”; the IC50 came out at 504 nM; the “osteogenesis averaged over all three donors, relative to vehicle treated MSCs” value came to 1.8±0.48. The “induction category of osteogenic differentiation (no, low, high induction)” value in data set [1] (setting [3]) is “high inducers”.

As to `CCCCOc1ccc2c(=O)c(-c3ccc(O)cc3)coc2c1` [2e, 7-Butoxy-3-(4-hydroxyphenyl)-4H-chromen-4-one], in data set [1] (14 days), the “osteogenic activity” value is “marked enhancement; also recorded: over two-fold increase” and the “osteogenesis averaged over all three donors, relative to vehicle treated MSCs” value turned out to be 2.3±0.33. Besides, in data set [1] (setting [3]), the “induction category of osteogenic differentiation (no, low, high induction)” value is reported as “high inducers”.

Turning to `COc1ccc(C(=O)Nc2ccc(OCC(C)C)cc2)c(OC)c1` [12b, N-(4-Isobutoxyphenyl)-2,4-dimethoxybenzamide], in data set [1] (14 days), the “osteogenic activity” value was “not active at all”.

With `O=c1c(-c2ccc(O)cc2)coc2cc(O)cc(O)c12` [genistein, reference compound], in the data set on BMSCs (6 donors, 1 μM), the “BMSC donors that did not respond to treatment” value was 2 of the 6. Moreover, the “cytotoxicity of BMSCs by bright field microscopy, compared to vehicle” value in the data set with BMSCs was “did not demonstrate enhanced cytotoxicity”. Further, the “osteogenic differentiation (calcium deposition), fold relative to vehicle-treated BMSCs” value with BMSCs stood at 1.4 fold. Also, the “osteogenic differentiation of MSCs, fold relative to vehicle treated MSCs” value in data set [1] (setting [5]) was 1.6±0.19 fold; in data set [1] (setting [6]), 1.7±0.02 fold; in data set [1] (setting [7]), 1.0±0.15 fold. Moreover, the “ASC donors that did not respond to treatment” value in the data set on ASCs (6 donors, 1 μM) is given as 3 of the 6. In addition, in the data set with ASCs, the “cytotoxicity of ASCs by bright field microscopy, compared to vehicle” value is listed as “did not demonstrate enhanced cytotoxicity”. Also, the “osteogenic differentiation (calcium deposition), fold relative to vehicle-treated ASCs” value with ASCs is on record as 1.4 fold.

As for `CC1(C)CCc2c(ccc3c2OCC(c2ccc(O)cc2)C3=O)O1` (centres unmarked) [compound 4, 3-(4-Hydroxyphenyl)-8,8-dimethyl-2,3,9,10-tetrahydropyrano[2,3-f]chromen-4(8H)-one], the melting point lay within 176 to 180 °C. The “osteogenic activity” value in data set [1] (14 days) is recorded as “modest potential”.

For `COc1ccc(C(=O)Nc2ccc(O)cc2)c(OC)c1` [compound 11, N-(4-Hydroxyphenyl)-2,4-dimethoxybenzamide], the “osteogenic activity” value in data set [1] (14 days) was “not active at all”.

`C#CCOc1ccc2c(=O)c(-c3ccc(O)cc3)coc2c1` [compound 6, 3-(4-Hydroxyphenyl)-7-(prop-2-yn-1-yloxy)-4H-chromen-4-one]: the melting point fell in the range of 228 to 230 °C. For the same compound, the “osteogenic activity” value in data set [1] (14 days) is on record as “only modest osteogenic potential”.

`CCCOc1ccc2c(=O)c(-c3ccc(O)cc3)coc2c1` [2d, 3-(4-Hydroxyphenyl)-7-propoxy-4H-chromen-4-one]: in data set [1] (14 days), the “cytotoxicity to donor MSCs” value is given as “cytotoxic; also recorded: toxicity to two donor cells” and the “osteogenic activity” value is reported as “modest osteogenesis”.

`CC1(C)C=Cc2cc3c(cc2O1)OCC(c1ccc(O)cc1)C3` (centres unmarked) [compound 10, 4-(8,8-Dimethyl-2,3,4,8-tetrahydropyrano[3,2-g]chromen-3-yl)phenol]: the “osteogenesis averaged over all three donors, relative to vehicle treated MSCs” value in data set [1] (14 days) is 2.2±0.19.

As for `CC1(C)CCc2c(ccc3c2OCC(c2ccc(O)cc2)C3)O1` (centres unmarked) [compound 5, 4-(8,8-Dimethyl-2,3,4,8,9,10-hexahydropyrano[2,3-f]chromen-3-yl)phenol], the “osteogenic activity” value in data set [1] (14 days) is listed as “no discernible osteogenic activity”.

In the case of `CC(C)Oc1ccc2c(=O)c(-c3ccc(O)cc3)coc2c1` [2c, 3-(4-Hydroxyphenyl)-7-isopropoxy-4H-chromen-4-one], the “osteogenic differentiation (calcium deposition), fold relative to vehicle-treated BMSCs” value with BMSCs turned out to be 1.6 fold. Besides, in data set [2], the “ALP expression relative to cells treated with vehicle in ODM” value is reported as 2.45±0.80, the “IGF1 expression relative to cells treated with vehicle in ODM” value is 26.96±9.19, the “OP expression relative to cells treated with vehicle in ODM” value was 2.68±0.11 and the “Sp7 expression relative to cells treated with vehicle in ODM” value turned out to be 20.08±4.81. Further, in data set [1], the “differentiation at day 7” value was “enhanced differentiation at day 7”. In data set [1] (14 days), the “osteogenic activity” value is “marked enhancement”; the IC50 was 58.2 nM; the “osteogenesis averaged over all three donors, relative to vehicle treated MSCs” value is reported as 2.0±0.41. Also, in data set [1] (setting [3]), the “induction category of osteogenic differentiation (no, low, high induction)” value is “high inducers”. For the same compound, the “osteogenic differentiation (calcium deposition), fold relative to vehicle-treated ASCs” value in the data set with ASCs is listed as 1.7 fold.
